“Also recorded” adds a separate entry of the source. Where two headings read alike, the source gives them in different places.
Legend:
CFU-C-8 = assay type: in vivo, mice
Description: A study on cytoprotective effect of the compound 1 was conducted.

hematopoietic stem cells = assay: cloning method of hematopoietic stem cells in the spleens of irradiated mice (spleen colony formation by donor bone marrow cells, radioprotection); assay type: in vivo
Description: The study of radioprotective and cytoprotective properties of compound 1 and the complex compound 2 (ratio 1:3) by cloning method of hematopoietic stem cells in the spleens of irradiated mice.
1) Formation of spleen colonies by bone marrow cells of mice that received Compound 2 multiple times prior to irradiation at a dose of 1.5 Gy. Unlike compound 1, the complex form of compound 2 is water-soluble.
Compound 2 was administered orally to mice-donors of bone marrow at doses of 5 mg/kg and 2 mg/kg in 0.2 ml physiological solution for 5 days. […] Control mice received 0.2 ml of physiological solution for 5 days. 7 days after the last injection, mice were irradiated (1.5 Gy at installation “Luch-1”). 15 minutes later the animals were sacrificed, a bone marrow cell suspension was prepared and injected to lethally irradiated recipient mice for determination of the colony-forming ability.
2) Formation of spleen colonies by bone marrow cells of mice that received Compound 1, suspended in a starch gel, multiple times prior to irradiation at a dose of 1.5 Gy.
In the second series of experiments using the same experimental scheme and similar doses, the Compound 1 suspension was prepared in 2% starch gel. 90 female mice (CBA×C57B1/6) F1 were used in this study: 18 donors and 72 recipients.

SMILES | CFU-C-8 Quantity on 10^5 bone marrow cells of donors (CFU-C-8; mouse, in vivo) | CFU-C-8 Quantity on 10^5 bone marrow cells of donors (CFU-C-8; Compound 1 5 mg/kg 7 days prior to single Cisplatin 5 mg/kg) | CFU-C-8 Quantity on 10^5 bone marrow cells of donors (CFU-C-8; Compound 1 5 mg/kg, no Cisplatin) | adaptive response of CFU-S-8 to cisplatin (in words) (CFU-C-8; administered 7 days prior to a single injection of cisplatin) | Quantity of colonies on 105 cells of bone marrow M ± m (hematopoietic stem cells; Compound 1 2 mg/kg + Starch gel 2%, no irradiation, 2 mg/kg) | Quantity of colonies on 105 cells of bone marrow M ± m (hematopoietic stem cells; Compound 1 2 mg/kg + Starch gel 2%, no irradiation, listed as compound 1, 2 mg/kg) | Quantity of colonies on 105 cells of bone marrow M ± m (hematopoietic stem cells; Compound 1 2 mg/kg + Starch gel 2%, then 1.5 Gy irradiation) | Quantity of colonies on 105 cells of bone marrow M ± m (hematopoietic stem cells; Compound 1 5 mg/kg + Starch gel 2%, no irradiation, 5 mg/kg) | Quantity of colonies on 105 cells of bone marrow M ± m (hematopoietic stem cells; Compound 1 5 mg/kg + Starch gel 2%, no irradiation, listed as compound 1, 5 mg/kg) | Quantity of colonies on 105 cells of bone marrow M ± m (hematopoietic stem cells; Compound 1 5 mg/kg + Starch gel 2%, then 1.5 Gy irradiation) | adaptive response of hematopoietic stem cells to irradiation / radioprotective effect (in words) (hematopoietic stem cells; treatment for 5 days prior to irradiation 1.5 Gy, both doses (5 and 2 mg/kg))
N.N.[Cl][Pt][Cl] [Cisplatin, reference compound] | 6.4 ± 0.6 |  |  |  |  |  |  |  |  |  | 
c1ccc(C2C3=C(CCCC3)[Se]C3=C2CCCC3)cc1 [Compound 1, 9-phenyl-sym-octahydroselenoxanthene] |  | 9.6 ± 0.3 | 12.6 ± 0.6 | distinct adaptive response | 24 ± 1.3 | statistically significant increase in the number of colonies | 9.1 ± 0.3 | 28.7 ± 1.1 | statistically significant increase in the number of colonies | 9.5 ± 0.8 | absent; also recorded: does not provide the radioprotective effect
